One block for each compound: values may come before it.
Assays:
[1] = system: pro-inflammatory cytokines; test: Serum cytokine analysis in MC38 tumor-bearing mice; type: in vivo; conditions: i.t. on a TLR7 equimolar basis; 6 hours after injection; vs PBS or vehicle control
Experimental: As a comparison, other mice were injected with TLR7/8 agonist telratolimod (3M-052, MedChemExpress, cat. no. HY-109104) in 10% DMSO, 40% PEG300 (Sigma Aldrich, cat. no. 8.07484), and 5% Tween-80 in PBS (Sigma Aldrich, cat. no. P8074) (with additional vehicle control mice). Six hours after injection, plasma was collected via submandibular bleed and analyzed for pro-inflammatory cytokines using LEGENDplex Mouse Inflammation Panel Assay (BioLegend, cat. no. 740446).

[2] = In vivo polymer biodistribution (tissue homogenate fluorescence); conditions: cytarabine one day before polymer i.v.
Text: To achieve this, they inoculated normal B6 mice with C1498. After one day, one group of mice received a dose of cytarabine. […] Eight hours after this injection, mice were sacrificed, and tissues were harvested for homogenization and subsequent fluorescence quantification using a microplate reader. Fluorescence values were normalized per mg of tissue.

C1498 cells = test: In vitro cancer cell binding of dye-labeled polymer to AML cells
Text: Flow cytometric analysis of dye labeled PDS-containing polymers binding to C1498 cells in a (A) polymer dose-dependent manner.
They also investigated the effect of cytarabine pre-treatment on polymer binding, both in a dose and time dependent manner.

RAW 264.7 macrophages = test: Cytotoxicity to RAW 264.7 macrophages (Zombie Aqua viability dye); type: cell-based; conditions: 24 hours after treatment; vs media alone

systemic inflammatory cytokines (IFN-γ, IL-6, MCP-1, IFN-β, IL-27) [1]: produced significant upregulation
Structure (SMILES): CCCCCCCCCCCCCCCCCC(=O)NCCCCOn1c(CCCC)nc2c(N)nc3ccccc3c21 [3M-052]

Structure (SMILES): Nc1ccn([C@@H]2O[C@H](CO)[C@@H](O)[C@@H]2O)c(=O)n1 [cytarabine]
effect of cytarabine pre-treatment on tissue biodistribution of polymer [2]: does not significantly alter the tissue biodistribution of polymer | efficiency of polymer binding to C1498 cells after cytarabine pre-treatment (duration) (C1498 cells; cytarabine given too far from polymer treatment): decreases binding efficiency of PDS-containing polymers | efficiency of polymer binding to C1498 cells after cytarabine pre-treatment (dose) (C1498 cells; cytarabine pre-treatment for 4 hours): increased the efficiency of polymer binding in a dose-dependent manner

Structure (SMILES): CCOCc1nc2c(N)nc3ccccc3c2n1CC(C)(C)O [R848]
live cells as a percent of total cells (RAW 264.7 macrophages): no significant change from the media alone control wells

— patent US20260053935A1, “METHODS AND COMPOSITIONS FOR TREATING CANCER WITH CANCER-BINDING ADJUVANTS” (THE UNIVERSITY OF CHICAGO, priority 2022, published 2026)
